Read-outs that look alike come from different tables or passages of the source.
Molecular target: T1, STAT6 (Homo sapiens, UniProt P42226)
T1 construct: endogenous in cells; host or cells: MOLM-16, KU-812, SKNO1, MB231, L1236
T1 sequence (P42226 1-847): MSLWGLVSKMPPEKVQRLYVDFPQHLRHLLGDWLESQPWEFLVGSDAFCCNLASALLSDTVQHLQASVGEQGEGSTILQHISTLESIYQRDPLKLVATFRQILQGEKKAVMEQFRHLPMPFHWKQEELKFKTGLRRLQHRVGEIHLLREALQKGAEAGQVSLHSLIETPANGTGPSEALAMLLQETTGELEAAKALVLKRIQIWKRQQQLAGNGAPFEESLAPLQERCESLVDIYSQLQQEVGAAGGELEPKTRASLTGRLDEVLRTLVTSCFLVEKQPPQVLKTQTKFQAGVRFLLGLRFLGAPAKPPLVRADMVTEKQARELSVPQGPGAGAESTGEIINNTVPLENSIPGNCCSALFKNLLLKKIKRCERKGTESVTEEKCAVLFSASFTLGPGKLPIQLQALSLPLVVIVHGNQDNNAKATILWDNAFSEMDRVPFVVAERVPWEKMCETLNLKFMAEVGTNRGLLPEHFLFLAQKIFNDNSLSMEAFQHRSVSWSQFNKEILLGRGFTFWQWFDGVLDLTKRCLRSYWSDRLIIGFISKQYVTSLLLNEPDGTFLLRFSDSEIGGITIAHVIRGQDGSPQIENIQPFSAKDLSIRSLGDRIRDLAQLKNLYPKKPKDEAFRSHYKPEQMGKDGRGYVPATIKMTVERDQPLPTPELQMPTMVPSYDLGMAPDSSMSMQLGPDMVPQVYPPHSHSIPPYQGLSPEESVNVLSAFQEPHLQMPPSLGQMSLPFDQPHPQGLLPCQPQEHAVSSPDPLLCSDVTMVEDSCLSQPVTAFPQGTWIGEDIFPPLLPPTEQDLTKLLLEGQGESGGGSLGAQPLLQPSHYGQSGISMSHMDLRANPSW
Assay: Immunoblotting (Western blot) analysis of STAT6 degradation efficiency of degraders in treated cells
Assay type: cell-based
Procedure, shortened: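 ~1e6 cells/pt; cpd at indicated conc and duration; RIPA + protease/phosphatase inhibitors; BCA; 20-40 μg/lane Tris-glycine SDS-PAGE; PVDF; primary Ab 1:1000 o/n 4 °C; IRDye secondaries 1 h rt; infrared scan and densitometry; GAPDH loading ctrl.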

[1] = MB231 cells, read-out: DC50 S6 MB231
[2] = L1236 cells, read-out: DC50 S6 L1236
[3] = MOLM-16 cells, class symbols, read-out: DC50 S6 MOLM-16

| Structure (SMILES) | DC50 [1] [µM] | DC50 [2] [µM] | DC50 [3] [µM] |
| --- | --- | --- | --- |
| Cc1cc([C@H](C(=O)N2C[C@H](O)C[C@H]2C(=O)N[C@@H](CC(=O)NCCCCCCCCNC(=O)CCN(C(=O)[C@@H]2CCCN2C(=O)[C@@H](NC(=O)c2cc3cc(C(F)(F)P(=O)(O)O)ccc3s2)C(C)(C)C)c2ccc(Br)cc2)c2ccc(-c3scnc3C)cc2)C(C)C)on1 [Compound 408, ((2-(((S)-1-((S)-2-((4-bromophenyl)(3-((8-((S)-3-((2S,4R)-4-hydroxy-1-((R)-3-methyl-2-(3-methylisoxazol-5-yl)butanoyl)pyrrolidine-2-carboxamido)-3-(4-(4-methylthiazol-5-yl)phenyl)propanamido)octyl)amino)-3-oxopropyl)carbamoyl)pyrrolidin-1-yl)-3,3-dimethyl-1-oxobutan-2-yl)carbamoyl)benzo[b]thiophen-5-yl)difluoromethyl)phosphonic acid] | > 10 |  |  |
| Cc1ncsc1-c1ccc([C@H](C)NC(=O)[C@@H]2C[C@@H](O)CN2C(=O)[C@@H](NC(=O)CCCCCCCCNC(=O)COc2ccc3c(c2)CN(C(=O)[C@@H](NC(=O)c2cc4cc(C(F)(F)P(=O)(O)O)ccc4s2)C(C)(C)C)[C@H](C(=O)N2CCO[C@H](c4ccccc4)C2)C3)C(C)(C)C)cc1 [Compound 468, (difluoro(2-(((S)-1-((S)-7-(2-((9-(((S)-1-((2S,4R)-4-hydroxy-2-(((S)-1-(4-(4-methylthiazol-5-yl)phenyl)ethyl)carbamoyl)pyrrolidin-1-yl)-3,3-dimethyl-1-oxobutan-2-yl)amino)-9-oxononyl)amino)-2-oxoethoxy)-3-((R)-2-phenylmorpholine-4-carbonyl)-3,4-dihydroisoquinolin-2(1H)-yl)-3,3-dimethyl-1-oxobutan-2-yl)carbamoyl)benzo[b]thiophen-5-yl)methyl)phosphonic acid] |  | > 10 | > 10 |
| CC(C)(C)[C@H](NC(=O)c1cc2cc(C(F)(F)P(=O)(O)O)ccc2s1)C(=O)N1C[C@@H](OCC(=O)NCCC#Cc2cccc3c2C(=O)N(C2CCC(=O)NC2=O)C3=O)C[C@H]1C(=O)N1CCC[C@H](c2ccccc2)C1 (stereo partly drawn) [Compound 495, ((2-(((2S)-1-((2S,4S)-4-(2-((4-(2-(2,6-dioxopiperidin-3-yl)-1,3-dioxoisoindolin-4-yl)but-3-yn-1-yl)amino)-2-oxoethoxy)-2-((R)-3-phenylpiperidine-1-carbonyl)pyrrolidin-1-yl)-3,3-dimethyl-1-oxobutan-2-yl)carbamoyl)benzo[b]thiophen-5-yl)difluoromethyl)phosphonic acid] |  |  | > 10 |
| Cc1ncsc1-c1ccc(CNC(=O)[C@@H]2C[C@@H](O)CN2C(=O)[C@@H](NC(=O)CCCCNC(=O)CO[C@@H]2C[C@@H](C(=O)N(C)c3ccc(Br)cc3)N(C(=O)[C@@H](NC(=O)c3cc4cc(C(F)(F)P(=O)(O)O)ccc4s3)C(C)(C)C)C2)C(C)(C)C)cc1 [Compound 416, ((2-(((S)-1-((2S,4R)-2-((4-bromophenyl)(methyl)carbamoyl)-4-(2-((5-(((S)-1-((2S,4R)-4-hydroxy-2-((4-(4-methylthiazol-5-yl)benzyl)carbamoyl)pyrrolidin-1-yl)-3,3-dimethyl-1-oxobutan-2-yl)amino)-5-oxopentyl)amino)-2-oxoethoxy)pyrrolidin-1-yl)-3,3-dimethyl-1-oxobutan-2-yl)carbamoyl)benzo[b]thiophen-5-yl)difluoromethyl)phosphonic acid] | > 10 | > 10 |  |
| Cc1ncsc1-c1ccc([C@H](C)NC(=O)[C@@H]2C[C@@H](O)CN2C(=O)[C@@H](NC(=O)CNC(=O)COc2ccc3c(c2)CN(C(=O)[C@@H](NC(=O)c2cc4cc(C(F)(F)P(=O)(O)O)ccc4s2)C(C)(C)C)[C@H](C(=O)N2CCC[C@H](c4ccccc4)C2)C3)C(C)(C)C)cc1 [Compound 470, (difluoro(2-(((S)-1-((S)-7-(2-((2-(((S)-1-((2S,4R)-4-hydroxy-2-(((S)-1-(4-(4-methylthiazol-5-yl)phenyl)ethyl)carbamoyl)pyrrolidin-1-yl)-3,3-dimethyl-1-oxobutan-2-yl)amino)-2-oxoethyl)amino)-2-oxoethoxy)-3-((R)-3-phenylpiperidine-1-carbonyl)-3,4-dihydroisoquinolin-2(1H)-yl)-3,3-dimethyl-1-oxobutan-2-yl)carbamoyl)benzo[b]thiophen-5-yl)methyl)phosphonic acid] |  |  | > 10 |
| CC(C)(C)[C@H](NC(=O)c1cc2cc(C(F)(F)P(=O)(O)O)ccc2s1)C(=O)N1C[C@@H](OCCCCCCCCCC#Cc2cccc3c2CN(C2CCC(=O)NC2=O)C3=O)C[C@H]1C(=O)N1CCO[C@H](c2ccccc2)C1 (stereo partly drawn) [Compound 584, ((2-(((2S)-1-((2S,4S)-4-((11-(2-(2,6-dioxopiperidin-3-yl)-1-oxoisoindolin-4-yl)undec-10-yn-1-yl)oxy)-2-((R)-2-phenylmorpholine-4-carbonyl)pyrrolidin-1-yl)-3,3-dimethyl-1-oxobutan-2-yl)carbamoyl)benzo[b]thiophen-5-yl)difluoromethyl)phosphonic acid] |  | > 10 | 0.1 to 1 |
| Cc1ncsc1-c1ccc([C@H](CC(=O)NCCCCCCCCC(=O)N[C@H]2C[C@@H](C(=O)N3CCO[C@H](c4ccccc4)C3)N(C(=O)[C@@H](NC(=O)c3cc4cc(C(F)(F)P(=O)(O)O)ccc4s3)C(C)(C)C)C2)NC(=O)[C@@H]2C[C@@H](O)CN2C(=O)[C@@H](NC(=O)C2(F)CC2)C(C)(C)C)cc1 [Compound 571, (difluoro(2-(((S)-1-((2S,4S)-4-(9-((S)-3-((2S,4R)-1-((S)-2-(1-fluorocyclopropane-1-carboxamido)-3,3-dimethylbutanoyl)-4-hydroxypyrrolidine-2-carboxamido)-3-(4-(4-methylthiazol-5-yl)phenyl)propanamido)nonanamido)-2-((R)-2-phenylmorpholine-4-carbonyl)pyrrolidin-1-yl)-3,3-dimethyl-1-oxobutan-2-yl)carbamoyl)benzo[b]thiophen-5-yl)methyl)phosphonic acid] |  |  | > 10 |
| Cc1ncsc1-c1ccc([C@H](C)NC(=O)[C@@H]2C[C@@H](O)CN2C(=O)[C@@H](NC(=O)CCCCCCCCCNC(=O)CC(=O)N2CCN(C(=O)[C@@H](NC(=O)c3cc4cc(C(F)(F)P(=O)(O)O)ccc4s3)C(C)(C)C)[C@H](C(=O)N3CCC[C@H](c4ccccc4)C3)C2)C(C)(C)C)cc1 [Compound 460, (difluoro(2-(((S)-1-((S)-4-(3-((10-(((S)-1-((2S,4R)-4-hydroxy-2-(((S)-1-(4-(4-methylthiazol-5-yl)phenyl)ethyl)carbamoyl)pyrrolidin-1-yl)-3,3-dimethyl-1-oxobutan-2-yl)amino)-10-oxodecyl)amino)-3-oxopropanoyl)-2-((R)-3-phenylpiperidine-1-carbonyl)piperazin-1-yl)-3,3-dimethyl-1-oxobutan-2-yl)carbamoyl)benzo[b]thiophen-5-yl)methyl)phosphonic acid] |  | > 10 | > 10 |
| Cc1ncsc1-c1ccc(CNC(=O)[C@@H]2C[C@@H](O)CN2C(=O)[C@@H](NC(=O)CCCCCCNC(=O)CO[C@@H]2C[C@@H](C(=O)N(C)c3ccc(Br)cc3)N(C(=O)[C@@H](NC(=O)c3cc4cc(C(F)(F)P(=O)(O)O)ccc4s3)C(C)(C)C)C2)C(C)(C)C)cc1 [Compound 418, ((2-(((S)-1-((2S,4R)-2-((4-bromophenyl)(methyl)carbamoyl)-4-(2-((7-(((S)-1-((2S,4R)-4-hydroxy-2-((4-(4-methylthiazol-5-yl)benzyl)carbamoyl)pyrrolidin-1-yl)-3,3-dimethyl-1-oxobutan-2-yl)amino)-7-oxoheptyl)amino)-2-oxoethoxy)pyrrolidin-1-yl)-3,3-dimethyl-1-oxobutan-2-yl)carbamoyl)benzo[b]thiophen-5-yl)difluoromethyl)phosphonic acid] | > 10 | > 10 |  |
| Cc1ncsc1-c1ccc([C@H](C)NC(=O)[C@@H]2C[C@@H](O)CN2C(=O)[C@@H](NC(=O)CCCCCCNC(=O)CC(=O)N2CCN(C(=O)[C@@H](NC(=O)c3cc4cc(C(F)(F)P(=O)(O)O)ccc4s3)C(C)(C)C)[C@H](C(=O)N3CCC[C@H](c4ccccc4)C3)C2)C(C)(C)C)cc1 [Compound 457, (difluoro(2-(((S)-1-((S)-4-(3-((7-(((S)-1-((2S,4R)-4-hydroxy-2-(((S)-1-(4-(4-methylthiazol-5-yl)phenyl)ethyl)carbamoyl)pyrrolidin-1-yl)-3,3-dimethyl-1-oxobutan-2-yl)amino)-7-oxoheptyl)amino)-3-oxopropanoyl)-2-((R)-3-phenylpiperidine-1-carbonyl)piperazin-1-yl)-3,3-dimethyl-1-oxobutan-2-yl)carbamoyl)benzo[b]thiophen-5-yl)methyl)phosphonic acid] |  | > 10 | > 10 |
